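The compound was tested at five concentrations on cells cultured in 96-well plates, with a 48-hour exposure period. Here, GI50 denotes the concentration required for 50% inhibition of growth. Definition used: TGI = concentration required for complete inhibition of growth.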
How the values were obtained:
Test in all cases: NCI tumour cell line growth inhibition, 48 h
HOP-62 NSCLC = test system: HOP-62 NSCLC
KM12 colon = test system: KM12 colon
M14 melanoma = test system: M14 melanoma
NCI-H460 lung = test system: NCI-H460 lung
NCI-H522 lung = test system: NCI-H522 lung
SK-OV-3 ovarian = test system: SK-OV-3 ovarian
SW-620 colon = test system: SW-620 colon
HT29 colon = test system: HT29 colon
SF-539 CNS = test system: SF-539 CNS
T-47D breast = test system: T-47D breast

SMILES | TGI (HOP-62 NSCLC) | TGI (KM12 colon) | TGI (M14 melanoma) | TGI (NCI-H460 lung) | TGI (NCI-H522 lung) | TGI (SK-OV-3 ovarian) | TGI (SW-620 colon) | TGI (HT29 colon) | TGI (SF-539 CNS) | GI50 (HOP-62 NSCLC) | GI50 (HT29 colon) | GI50 (KM12 colon) | GI50 (M14 melanoma) | GI50 (NCI-H522 lung) | GI50 (SF-539 CNS) | GI50 (SK-OV-3 ovarian) | GI50 (SW-620 colon) | GI50 (NCI-H460 lung) | TGI (T-47D breast) | GI50 (T-47D breast)
COc1cc(OC)cc(N2CCC(c3c(N)nc(N)nc3Cl)CC2)c1 | > 100 µM | > 100 µM | > 100 µM | > 100 µM | > 100 µM | > 100 µM | > 100 µM | – | – | – | – | – | – | – | – | – | – | – | – | –
C=CCN1C(=O)CS/C1=N\NC(=O)c1c(C)nc2sccn12 | > 100 µM | > 100 µM | – | > 100 µM | > 100 µM | > 100 µM | > 100 µM | > 100 µM | > 100 µM | – | – | – | – | – | – | – | – | – | – | –
[Cu+2].[Cu+2].[O-]c1ccccc1C=Nc1ccccc1[O-].[O-]c1ccccc1C=Nc1ccccc1[O-] | 36.6 µM | 27 µM | 15.3 µM | – | 6.24 µM | 40.4 µM | 26.2 µM | 27.4 µM | 25.9 µM | 21.9 µM | 6.05 µM | 10 µM | 4.45 µM | 2.39 µM | 13.2 µM | 25.5 µM | 6.61 µM | – | – | –
COc1nc(OC)c2c(=O)oc(-c3ccccc3)cc2n1 | – | > 100 µM | – | – | > 100 µM | > 100 µM | > 100 µM | > 100 µM | > 100 µM | – | – | – | – | – | – | – | – | – | – | –
CS(=O)(=O)C1S(=O)(=O)OCCOS1(=O)=O | > 100 µM | > 100 µM | > 100 µM | > 100 µM | > 100 µM | > 100 µM | > 100 µM | > 100 µM | > 100 µM | – | – | – | – | – | – | – | – | – | – | –
O=C(O)CSc1n[nH]c(/C=C/c2ccccc2)n1 | > 100 µM | > 100 µM | > 100 µM | > 100 µM | > 100 µM | > 100 µM | > 100 µM | > 100 µM | > 100 µM | – | – | – | – | – | – | – | – | – | – | –
CCCCN(CC)C(=O)C(=O)C1C(=O)Nc2ccccc2S1=O (stereo not given) | > 100 µM | > 100 µM | > 100 µM | > 100 µM | > 100 µM | > 100 µM | > 100 µM | > 100 µM | > 100 µM | – | – | – | – | – | – | – | – | – | – | –
COC(=O)N1[C@H]2Cc3c(OC)c(C)c(OC)c(OC)c3[C@@H]1/C(=C\c1cc(OC)c(OC)c(C)c1OC)N(Cc1ccccc1)C2=O | > 100 µM | > 100 µM | > 100 µM | > 100 µM | 37.2 µM | > 100 µM | – | > 100 µM | > 100 µM | – | – | – | – | – | – | – | – | – | – | –
OCC(O)CC[CH2][Sn]([c]1ccccc1)([c]1ccccc1)[c]1ccccc1 (stereo not given) | 39.1 µM | 29.8 µM | 31 µM | 31.6 µM | 13.7 µM | 34.1 µM | 26.9 µM | 33.4 µM | 32.5 µM | 18.4 µM | 19 µM | 13.9 µM | 14.2 µM | 4.64 µM | 17.2 µM | 19.7 µM | 13.2 µM | 15.4 µM | – | –
O=C1CCC2(c3ccc(F)cc3)Nc3ccccc3N12 (stereo not given) | > 100 µM | > 100 µM | > 100 µM | > 100 µM | > 100 µM | > 100 µM | > 100 µM | > 100 µM | > 100 µM | – | – | – | – | – | – | – | – | – | – | –
CN(C)c1c(Cl)c(=O)oc2c1ccc1nc(-c3ccccc3)sc12 | > 100 µM | > 100 µM | > 100 µM | > 100 µM | > 100 µM | – | > 100 µM | > 100 µM | > 100 µM | – | – | – | – | – | – | – | – | – | > 100 µM | –
CC(C)(C)c1nc2c(o1)C(=Nc1ccccc1)c1ccccc1C2=O | 31 µM | 50.3 µM | 6.1 µM | 19.9 µM | 10.2 µM | 63.4 µM | 18.4 µM | 57.8 µM | 8.5 µM | – | – | – | – | – | – | – | – | – | – | –
CCc1nc2c(O)ccc(O)c2nc1C | 32.3 µM | 30.8 µM | 28.3 µM | 36.1 µM | 6.47 µM | 34.2 µM | 4.1 µM | 34.9 µM | 31.4 µM | – | – | – | – | – | – | – | – | – | – | –
COc1cc2c(cc1OC)C13CCN4CC5=CCOC(CC(=O)O)C(C5CC41)C3N2 (stereo not given) | > 100 µM | > 100 µM | > 100 µM | > 100 µM | > 100 µM | > 100 µM | > 100 µM | > 100 µM | > 100 µM | – | – | – | – | – | – | – | – | – | – | –
CC(NC(=O)c1ccccc1)C(=O)N(Cc1ccccc1)Cc1ccccc1 (stereo not given) | 66.4 µM | 58 µM | 39.1 µM | 65.4 µM | 65.2 µM | > 100 µM | > 100 µM | > 100 µM | > 100 µM | – | – | – | – | – | – | – | – | – | – | –
COC(=O)c1cnc2nc(N3CCOCC3)[nH]n2c1=O | > 100 µM | > 100 µM | > 100 µM | > 100 µM | > 100 µM | > 100 µM | > 100 µM | > 100 µM | > 100 µM | – | – | – | – | – | – | – | – | – | – | –
CCCCOC1CC2(c3ccc(OC)cc3)C(=O)c3ccccc3N2O1 (stereo not given) | – | > 100 µM | > 100 µM | > 10 µM | 81.2 µM | > 100 µM | > 100 µM | – | > 100 µM | – | – | – | – | – | – | – | – | – | – | –
CCOC(C)OCC#CCCBr (stereo not given) | > 100 µM | > 100 µM | > 100 µM | > 100 µM | – | > 100 µM | > 100 µM | > 100 µM | > 100 µM | – | – | – | – | – | – | – | – | – | – | –
CN(C(=O)C1CCCCC1)c1ccccc1I(=O)=O | – | > 100 µM | – | > 100 µM | 30.2 µM | > 100 µM | 44.6 µM | > 100 µM | > 100 µM | – | 33.8 µM | 37.8 µM | – | 16.3 µM | 39.2 µM | 32.4 µM | 20 µM | 48 µM | 44.2 µM | 16.4 µM
COC(=O)/C(=C/c1ccc(OC)cc1)C(C(=O)O)=C(C)C | > 100 µM | > 100 µM | > 100 µM | > 100 µM | > 100 µM | > 100 µM | > 100 µM | > 100 µM | > 100 µM | – | – | – | – | – | – | – | – | – | – | –
CC(C)(C)C1CC[C@H]2c3c([nH]c4ccc(Br)cc34)[C@H]3C(=O)N(c4ccccc4)C(=O)[C@H]3[C@H]2C1 (stereo not given in full) | > 100 µM | > 100 µM | > 100 µM | 38.9 µM | 69.3 µM | 40.8 µM | > 100 µM | > 100 µM | – | – | – | – | – | – | – | – | – | – | – | –
COC(=O)OCC1OC(N2C(=O)NC(=O)C(I)C2N=[N+]=[N-])CC1OC(=O)OC (stereo not given) | > 100 µM | > 100 µM | > 100 µM | > 100 µM | > 100 µM | > 100 µM | > 100 µM | > 100 µM | > 100 µM | – | – | – | – | – | – | – | – | – | – | –

Reference: PubChem BioAssay (NCI)
